Results on 14 compounds are retold here after ChEMBL document CHEMBL5606459, “ASAP - WNV NS2B-NS3 protease fluorescence single point” (2024).

The inhibition is the relative decrease from the control value, in per cent.

The target in the first assay is T1, NS3 (West Nile virus) (UniProt K4FQI5).
T1 sequence (whole entry): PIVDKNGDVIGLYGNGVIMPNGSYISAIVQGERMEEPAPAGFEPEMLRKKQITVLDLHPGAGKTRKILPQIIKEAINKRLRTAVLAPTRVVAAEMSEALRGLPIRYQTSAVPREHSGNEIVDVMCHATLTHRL
Nature of the assay: Functional biochemical assay to identify treatments for viral infectious disease that targets West Nile NS2B-NS3 protease. Utilizing a direct enzyme activity measurement method, reading the fluorescence intensity is used to characterize the relative potency of inhibitors as % inhibition. Synthetic construct has been made based on West Nile virus (strain NY-99) by Centre for Medicines Discovery, University of Oxford, and the assay has been performed by Stanford University.The protocol is publicly available: dx.doi.org/10.17504/protocols.io.ewov1dy37vr2/v1. The settings on record: Concentration 50.0 uM, Number of replicates 1.0.
As for `O=Cc1ccc(N2CCCCC2)cc1`, the inhibition came out at 36.7%.
Same read-out and setting: as for `Cc1cc(NS(=O)(=O)c2ccc(S(=O)(=O)F)cc2)c[nH]c1=O`, the figure is 14.8%; as for `O=Cc1ccc(N2CCC(C(=O)O)CC2)o1`, 65.4%; as for `Cc1c(C=O)c2ccccn2c1C#N`, 49.8%.
The same measure, in the same setting: next, `O=Cc1ccc(N2CCC(C(=O)O)CC2)cc1`: 69.5%; `CN(C)c1ccc(C=C(C#N)C(N)=O)cc1`: 38.2%.
With `Cc1c(C=O)c2ccccn2c1C(=O)c1ccncc1`, the inhibition worked out at 63.6%.
Same read-out and setting: as for `O=Cc1nc(-c2ccccc2Cl)n2ccccc12`, the figure is 41%.
On to `O=Cc1ccc(N2CCCCCC2)cc1`, for which the inhibition stood at 57%.
`CC[C@H]1CO[C@H](C)CN1c1ccc(C=O)cn1`: the inhibition is 61.8%.
As to `Cc1nc(C=O)c2ccccn12`, the inhibition amounted to 33.8%.
In the case of `Nc1ccc2ccc(B(O)O)cc2c1`, the inhibition is -5.6%.

Another assay concerns the target T1, NS3 (West Nile virus). The assay is described as follows: Functional biochemical assay to identify treatments for viral infectious disease that targets West Nile NS2B-NS3 protease. Utilizing a direct enzyme activity measurement method, reading the fluorescence intensity is used to characterize the relative potency of inhibitors as % inhibition. Synthetic construct has been made based on West Nile virus (strain NY-99) by Centre for Medicines Discovery, University of Oxford, and the assay has been performed by Weizmann Institute of Science.The protocol is publicly available: dx.doi.org/10.17504/protocols.io.q26g7yebkgwz/v3. The settings on record: Concentration 50.0 uM, Number of replicates 2.0, Standard deviation 2.0262748168953313 %.
For `N=C(N)NCCC[C@H](NC(=O)c1nccs1)C(=O)N[C@@H](CCCCN)C(=O)N[C@@H](C(N)=O)c1ccc(OCc2ccc(C(F)(F)F)cc2)cc1`, the inhibition came to 80.2%.

Staying with this assay, now noted: Concentration 50.0 uM, Number of replicates 2.0, Standard deviation 6.952329816266579 %.
For the compound `O=C1c2c(O)ccc([N+](=O)[O-])c2C(=O)c2c([N+](=O)[O-])ccc(O)c21`, the inhibition is 4.86%.

The assay is the same for the next values; noted with them: Concentration 100.0 uM, Number of replicates 2.0, Standard deviation 1.865400633304037 %.
On to `O=C1c2c(O)ccc([N+](=O)[O-])c2C(=O)c2c([N+](=O)[O-])ccc(O)c21`, for which the inhibition is 22.8%.

The assay is the same for the next values; noted with them: Concentration 100.0 uM, Number of replicates 2.0, Standard deviation 12.945380917885936 %.
For `N=C(N)NCCC[C@H](NC(=O)c1nccs1)C(=O)N[C@@H](CCCCN)C(=O)N[C@@H](C(N)=O)c1ccc(OCc2ccc(C(F)(F)F)cc2)cc1`, the inhibition worked out at 119%.
